# Assay results reported in patent publication US8809355B2, “GABAA receptor modulators” (Innovationspatent Sverige AB, priority 2008, dated 2014).
# Tests used:
# benzodiazepine receptor = assay: Displacement of 3H-flumazenil in rat cortical tissue (receptor binding); conditions: for Ki: 3H-Flumazenil binding in vitro, rat cortical membranes, mean ± SD of three determinations
# Description: Affinity of test substances for the benzodiazepine receptor was determined in vitro by displacement of ^3H-flumazenil in rat cortical tissue.
SMILES,Ki (benzodiazepine receptor) [nM],affinity for the BZD receptor (in words) (benzodiazepine receptor; discussion of Table 1),melting point,"fold difference in potency among the ethylene linked compounds, thiophene over phenyl (benzodiazepine receptor; ratio of Ki values, printed as 14a over 14b) [fold]","fold higher affinity of methylene linked thiophene compared to phenyl 16a (benzodiazepine receptor; ratio of Ki values, vs 16a) [fold]"
"CCOC(=O)n1c(=S)[nH]c2ccc(C)cc2c1=O [Compound 3b, Ethyl 6-methyl-4-oxo-2-thioxo-1,4-dihydroquinazoline-3(2H)-carboxylate]",> 30000,low affinity,164 °C,,
"Cc1ccc(-n2nc3c4cc(Br)ccc4[nH]c(=O)n3c2=O)cc1 [Compound 8a, 9-Bromo-2-(4-methylphenyl)-2,6-dihydro[1,2,4]triazolo[4,3-c]quinazoline-3,5-dione]",0.24 ± 0.07,,369 °C,,
"O=c1[nH]c2ccc(Br)cc2c2nn(-c3ccccc3)c(=O)n12 [Compound 8b, 9-Bromo-2-phenyl-2,6-dihydro[1,2,4]triazolo[4,3-c]quinazoline-3,5-dione]",0.47 ± 0.09,,405 °C,,
"O=c1[nH]c2ccc(Br)cc2c2nn(-c3ccc(Cl)cc3)c(=O)n12 [Compound 8c, 9-Bromo-2-(4-chlorophenyl)-2,6-dihydro[1,2,4]triazolo[4,3-c]quinazoline-3,5-dione]",0.6 ± 0.26,,387 °C (dec.),,
"O=c1[nH]c2ccc(Br)cc2c2nn(-c3ccccc3F)c(=O)n12 [Compound 8d, 9-Bromo-2-(2-fluorophenyl)-2,6-dihydro[1,2,4]triazolo[4,3-c]quinazoline-3,5-dione]",0.2 ± 0.07,,347 °C (dec.),,
"Cc1ccc2[nH]c(=O)n3c(=O)n(-c4ccccc4)nc3c2c1 [Compound 8e, 9-Methyl-2-phenyl-2,6-dihydro[1,2,4]triazolo[4,3-c]quinazoline-3,5-dione]",0.62 ± 0.13,,330 °C (dec.),,
"Cc1ccc(-n2nc3c4cc(C#Cc5ccccc5)ccc4[nH]c(=O)n3c2=O)cc1 [Compound 13a, 2-(4-Methylphenyl)-9-phenylethynyl-2,6-dihydro[1,2,4]triazolo[4,3-c]-quinazoline-3,5-dione]",40,,> 300 °C (dec.),,
"Cc1ccc(-n2nc3c4cc(C#Cc5ccsc5)ccc4[nH]c(=O)n3c2=O)cc1 [Compound 13b, 2-(4-Methylphenyl)-9-(3-thienylethynyl)-2,6-dihydro[1,2,4]triazolo[4,3-c]-quinazoline-3,5-dione]",,,> 320 °C (dec.),,
"Cc1ccc(-n2nc3c4cc(C#Cc5ccccn5)ccc4[nH]c(=O)n3c2=O)cc1 [Compound 13c, 2-(4-Methylphenyl)-9-(pyridin-2-ylethynyl)-2,6-dihydro[1,2,4]triazolo[4,3-c]-quinazoline-3,5-dione]",,,330 °C,,
"Cc1ccc(-n2nc3c4cc(C#Cc5cccnc5)ccc4[nH]c(=O)n3c2=O)cc1 [Compound 13d, 2-(4-Methylphenyl)-9-(pyridin-3-ylethynyl)-2,6-dihydro[1,2,4]triazolo[4,3-c]-quinazoline-3,5-dione]",,,339 °C,,
"Cc1ccc(-n2nc3c4cc(C#Cc5ccncc5)ccc4[nH]c(=O)n3c2=O)cc1 [Compound 13e, 2-(4-Methylphenyl)-9-(pyridin-4-ylethynyl)-2,6-dihydro[1,2,4]triazolo[4,3-c]-quinazoline-3,5-dione]",,,330 °C,,
"Cc1ccc(-n2nc3c4cc(C#Cc5ccc(Oc6ccccc6)cc5)ccc4[nH]c(=O)n3c2=O)cc1 [Compound 13f, 2-(4-Methylphenyl)-9-[(4-phenoxyphenyl)ethynyl]-2,6-dihydro[1,2,4]triazolo[4,3-c]-quinazoline-3,5-dione]",,,216 °C,,
"Cc1ccc(-n2nc3c4cc(C#Cc5ccc(-c6ccccc6)cc5)ccc4[nH]c(=O)n3c2=O)cc1 [Compound 13g, 9-(Biphen-4-ylethynyl)-2-(4-methylphenyl)-2,6-dihydro[1,2,4]triazolo[4,3-c]-quinazoline-3,5-dione]",,,> 350 °C (dec.),,
"Cc1ccc(-n2nc3c4cc(C#Cc5cccc(O)c5)ccc4[nH]c(=O)n3c2=O)cc1 [Compound 13i, 9-(3-Hydroxyphenyl)ethynyl-2-(4-methylphenyl)-2,6-dihydro[1,2,4]triazolo[4,3-c]-quinazoline-3,5-dione]",,,300 °C (dec.),,
"Cc1ccc(-n2nc3c4cc(CCc5ccccc5)ccc4[nH]c(=O)n3c2=O)cc1 [Compound 14a, 2-(4-Methylphenyl)-9-(2-phenylethyl)-2,6-dihydro[1,2,4]triazolo[4,3-c]-quinazoline-3,5-dione]",4 ± 1.2,,303 °C,4,
"Cc1ccc(-n2nc3c4cc(CCc5ccsc5)ccc4[nH]c(=O)n3c2=O)cc1 [Compound 14b, 2-(4-Methylphenyl)-9-[2-(3-thienyl)ethyl]-2,6-dihydro[1,2,4]triazolo[4,3-c]-quinazoline-3,5-dione]",0.94 ± 0.27,,281 °C,,
"Cc1ccc(-n2nc3c4cc(CCc5ccccn5)ccc4[nH]c(=O)n3c2=O)cc1 [Compound 14c, 2-(4-Methylphenyl)-9-[2-(2-pyridyl)ethyl]-2,6-dihydro[1,2,4]triazolo[4,3-c]-quinazoline-3,5-dione]",0.53 ± 0.11,,> 300 °C (dec.),,
"Cc1ccc(-n2nc3c4cc(CCc5cccnc5)ccc4[nH]c(=O)n3c2=O)cc1 [Compound 14d, 2-(4-Methylphenyl)-9-[2-(3-pyridyl)ethyl]-2,6-dihydro[1,2,4]triazolo[4,3-c]-quinazoline-3,5-dione]",0.2 ± 0.04,,292 °C,,
"Cc1ccc(-n2nc3c4cc(CCc5ccncc5)ccc4[nH]c(=O)n3c2=O)cc1 [Compound 14e, 2-(4-Methylphenyl)-9-[2-(4-pyridyl)ethyl]-2,6-dihydro[1,2,4]triazolo[4,3-c]-quinazoline-3,5-dione]",0.17 ± 0.03,,294 °C,,
"Cc1ccc(-n2nc3c4cc(CCc5ccc(Oc6ccccc6)cc5)ccc4[nH]c(=O)n3c2=O)cc1 [Compound 14f, 2-(4-Methylphenyl)-9-[2-(4-phenoxyphenyl)ethyl]-2,6-dihydro[1,2,4]triazolo[4,3-o]-quinazoline-3,5-dione]",123 ± 12,,213 °C,,
Cc1ccc(-n2nc3c4cc(CCc5ccc(-c6ccccc6)cc5)ccc4[nH]c(=O)n3c2=O)cc1 [Compound 14g],1570 ± 150,,345 °C,,
"Cc1ccc(-n2nc3c4cc(CCc5cccc(O)c5)ccc4[nH]c(=O)n3c2=O)cc1 [Compound 14i, 9-[2-(3-hydroxyphenyl)ethyl]-2-(4-Methylphenyl)-2,6-dihydro[1,2,4]triazolo[4,3-c]-quinazoline-3,5-dione]",6.2,,300 °C (dec.),,
"Cc1ccc(-n2nc3c4cc(Cc5ccccc5)ccc4[nH]c(=O)n3c2=O)cc1 [Compound 16a, 9-Benzyl-2-(4-methylphenyl)-2,6-dihydro[1,2,4]triazolo[4,3-c]quinazoline-3,5-dione]",~1,,299 °C,,
"Cc1ccc(-n2nc3c4cc(Cc5cccc(F)c5)ccc4[nH]c(=O)n3c2=O)cc1 [Compound 16b, 9-(3-Fluorobenzyl)-2-(4-methylphenyl)-2,6-dihydro[1,2,4]triazolo[4,3-c]quinazoline-3,5-dione]",2.1 ± 0.3,,324 °C,,
"Cc1ccc(-n2nc3c4cc(Cc5ccsc5)ccc4[nH]c(=O)n3c2=O)cc1 [Compound 16c, 2-(4-Methylphenyl)-9-(3-thienylmethyl)-2,6-dihydro[1,2,4]triazolo[4,3-c]quinazoline-3,5-dione]",0.23 ± 0.18,,287 °C,,5
"Cc1ccc(-n2nc3c4cc(/C=C/C(=O)OCc5ccccc5)ccc4[nH]c(=O)n3c2=O)cc1 [Compound 17, Benzyl (2E)-3-[2-(4-methylphenyl)-3,5-dioxo-2,6-dihydro[1,2,4]triazolo[4,3-c]quinazolin-9-yl]acrylate]",,,242 °C,,
"Cc1ccc(-n2nc3c4cc(CCC(=O)O)ccc4[nH]c(=O)n3c2=O)cc1 [Compound 18, 3-[2-(4-Methylphenyl)-3,5-dioxo-2,6-dihydro[1,2,4]triazolo[4,3-c]quinazolin-9-yl]propanoic acid]",1.4,,275 °C,,
